The values below come from patent publication US20060063759A1, “Tricyclic steroid hormone nuclear receptor modulators” (priority 2002, published 2006).

pKi: −log10 of the molar value.

In one assay the target is T1, human MR (Homo sapiens, UniProt P08235).
T1 construct: The full length human MR gene is cloned from a human kidney or human brain cDNA library; His tag from the pAcHLT vector (own knowledge); made in house; host or cells: Sf9 insect cells (baculovirus, pAcHLT transfer vector)
T1 sequence (P08235 1-984): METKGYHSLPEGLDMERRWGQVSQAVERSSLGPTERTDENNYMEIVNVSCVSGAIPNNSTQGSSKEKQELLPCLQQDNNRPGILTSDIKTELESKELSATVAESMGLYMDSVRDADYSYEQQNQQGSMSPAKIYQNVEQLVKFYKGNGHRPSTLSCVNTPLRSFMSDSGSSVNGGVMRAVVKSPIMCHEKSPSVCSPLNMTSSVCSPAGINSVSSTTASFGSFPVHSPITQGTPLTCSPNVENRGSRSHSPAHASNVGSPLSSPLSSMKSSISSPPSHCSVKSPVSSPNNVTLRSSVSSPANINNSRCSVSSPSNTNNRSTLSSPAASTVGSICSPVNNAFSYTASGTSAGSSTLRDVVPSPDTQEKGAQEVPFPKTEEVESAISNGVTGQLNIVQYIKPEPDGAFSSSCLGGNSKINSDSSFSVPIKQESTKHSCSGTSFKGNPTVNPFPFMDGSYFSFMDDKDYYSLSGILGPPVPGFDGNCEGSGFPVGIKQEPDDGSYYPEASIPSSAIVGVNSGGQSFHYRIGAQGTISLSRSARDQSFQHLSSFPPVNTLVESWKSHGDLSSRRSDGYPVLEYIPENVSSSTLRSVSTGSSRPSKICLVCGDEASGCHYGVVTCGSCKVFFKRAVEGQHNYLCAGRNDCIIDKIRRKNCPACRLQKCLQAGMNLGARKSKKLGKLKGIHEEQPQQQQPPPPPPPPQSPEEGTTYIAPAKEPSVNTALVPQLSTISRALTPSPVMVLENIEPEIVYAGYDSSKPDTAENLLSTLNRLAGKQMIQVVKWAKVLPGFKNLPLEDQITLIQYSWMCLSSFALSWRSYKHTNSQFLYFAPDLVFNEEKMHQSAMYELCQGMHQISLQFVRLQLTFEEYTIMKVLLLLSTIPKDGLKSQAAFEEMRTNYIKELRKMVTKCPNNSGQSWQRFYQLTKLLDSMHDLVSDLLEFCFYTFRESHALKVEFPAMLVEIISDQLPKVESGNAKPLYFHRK
Nature of the assay: Mineralocorticoid Receptor Binding Assay ([3H]-aldosterone). Conditions: [3H]-aldosterone binding, human MR expressed in Sf9 cells; read-out: MR Ki. The essentials:
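Lysate supernatant of Sf9 cells expressing full-length human MR (20-25 μg protein) was incubated with 0.5 nM [3H]-aldosterone and test compound in molybdate/Tris/phosphate/glycerol buffer, pH 7.5, ~16 h at 4 °C. Bound ligand was filtered and counted by scintillation; IC50 is the concentration halving [3H]-aldosterone binding.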

The next assay has as its target T2, glucocorticoid receptor (Homo sapiens, UniProt P04150).
T2 construct: containing 50-200 ug of A549 cell extract and 1.86 nM [^3H]-dexamethasone; host or cells: A549 human lung epithelial cells (sonicated cell extract)
T2 sequence (P04150 1-777): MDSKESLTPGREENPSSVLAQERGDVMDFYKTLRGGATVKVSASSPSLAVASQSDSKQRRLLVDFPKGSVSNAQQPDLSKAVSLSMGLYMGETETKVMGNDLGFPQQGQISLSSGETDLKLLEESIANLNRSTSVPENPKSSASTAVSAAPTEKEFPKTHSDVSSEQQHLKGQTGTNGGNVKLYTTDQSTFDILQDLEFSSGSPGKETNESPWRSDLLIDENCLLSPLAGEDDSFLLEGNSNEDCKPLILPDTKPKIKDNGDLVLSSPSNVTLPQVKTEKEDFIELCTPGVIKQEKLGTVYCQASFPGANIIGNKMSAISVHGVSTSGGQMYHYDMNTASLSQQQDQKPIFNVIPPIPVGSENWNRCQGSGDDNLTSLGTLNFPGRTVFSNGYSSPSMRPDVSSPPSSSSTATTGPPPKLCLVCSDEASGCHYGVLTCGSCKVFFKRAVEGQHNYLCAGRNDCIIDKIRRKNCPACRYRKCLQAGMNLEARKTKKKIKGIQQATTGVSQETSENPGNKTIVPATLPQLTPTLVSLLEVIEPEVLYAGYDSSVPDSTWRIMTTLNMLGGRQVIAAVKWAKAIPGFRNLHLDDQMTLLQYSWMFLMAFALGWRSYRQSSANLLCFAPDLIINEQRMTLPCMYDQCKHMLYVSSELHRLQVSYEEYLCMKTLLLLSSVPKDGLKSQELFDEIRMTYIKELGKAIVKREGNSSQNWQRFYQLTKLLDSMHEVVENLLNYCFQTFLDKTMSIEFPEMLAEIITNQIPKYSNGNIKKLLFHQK
Nature of the assay: Glucocorticoid Receptor Binding Assay ([3H]-dexamethasone, A549 cell extract). The following applies: [3H]-dexamethasone binding, read-out: GR Ki. The essentials: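 A549 cell extract (50–200 ug) incubated with 1.86 nM [3H]-dexamethasone and test compound for 16 h at 4 °C in Tris-HCl pH 7.2 buffer with glycerol and molybdate. Unbound radioligand removed by dextran-coated charcoal, then supernatant bound counts measured by scintillation.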

What is called pKi is the Ki on a negative log10 scale, so that one unit is a factor of ten. Regarding `CS(=O)(=O)Nc1cccc(/C=C2/c3ccccc3COc3cc(F)ccc32)c1` [Example 629], the pKi on human MR and at glucocorticoid receptor was over 6.30 each time.
Turning to `CS(=O)(=O)Nc1cccc(/C=C2\c3ccccc3COc3cc(F)ccc32)c1` [Example 630], the pKi on human MR and at glucocorticoid receptor was over 6.30 in each case.
Take `O=c1[nH]c2cc(/C=C3/c4ccccc4COc4cc(F)ccc43)ccc2o1` [Example 632]: the pKi on human MR and at glucocorticoid receptor was over 6.30 in each case.
For the compound `O=c1[nH]c2cc(/C=C3\c4ccccc4COc4cc(F)ccc43)ccc2o1` [Example 633], the pKi on human MR and on glucocorticoid receptor was over 6.30 throughout.
Turning to `Cn1c(=O)[nH]c2cc(/C=C3/c4ccccc4COc4cc(F)ccc43)ccc21` [Example 634], the negative logarithm of the Ki (pKi) on human MR and on glucocorticoid receptor was over 6.30 in each case.
As for `Cn1c(=O)[nH]c2cc(/C=C3\c4ccccc4COc4cc(F)ccc43)ccc21` [Example 635], the pKi at human MR was over 6.30; on glucocorticoid receptor, over 6.00.
In the same order, the values of `O=c1[nH]c2cc(/C=C3/c4ccccc4COc4cc(F)ccc43)ccc2s1` [Example 636] are over 6.30 and over 6.30.
Regarding `O=c1[nH]c2cc(/C=C3\c4ccccc4COc4cc(F)ccc43)ccc2s1` [Example 637], the negative-log Ki (pKi) on human MR and on glucocorticoid receptor was over 6.30 in each case.
As to `CC(C)n1c(=O)[nH]c2cc(/C=C3/c4ccccc4COc4cc(F)ccc43)ccc21` [Example 638], the negative logarithm of the Ki (pKi) at human MR was over 6.30; on glucocorticoid receptor, over 6.00.
For `COc1ccc2c(c1)OCc1ccccc1C2=Cc1ccc2[nH]c(=O)[nH]c2c1` [Example 639], the pKi is over 6.30 on human MR and over 5.00 on glucocorticoid receptor.
For the compound `Fc1ccc2c(c1)OCc1ccccc1C2=Cc1cccc(C(F)F)c1` [Example 640], the pKi on human MR and at glucocorticoid receptor was over 6.30 in each case.
With `O=c1[nH]c2ccc(/C=C3\c4ccc(Cl)cc4COc4ccccc43)cc2[nH]1` [Example 641], the values for the negative-log Ki (pKi) on human MR and on glucocorticoid receptor were over 6.30 and over 6.00, respectively.
For `O=c1[nH]c2ccc(/C=C3\c4ccccc4COc4c(F)cccc43)cc2[nH]1` [Example 642], the figures for the pKi at human MR and on glucocorticoid receptor were over 6.30 and over 6.00, respectively.
In the same order, the values of `O=c1[nH]c2ccc(/C=C3\c4ccccc4COc4cc(C(F)(F)F)ccc43)cc2[nH]1` [Example 643] are over 6.30 and over 5.00.
Regarding `O=c1[nH]c2ccc(C=C3c4ccc(F)cc4COc4cc(F)ccc43)cc2[nH]1` [Example 644], the pKi at human MR is over 6.30; at glucocorticoid receptor it was over 6.00.
In the same order, the values of `O=c1[nH]c2cc(/C=C3\c4ccccc4COc4cc(F)ccc43)ccc2n1CCN1CCCC1` [Example 646] are over 6.30 and over 6.00.
On the same counts, the results for `O=c1[nH]c2cc(/C=C3\c4ccccc4COc4cc(Cl)ccc43)ccc2n1CCN1CCOCC1` [Example 647] are over 6.30 and over 6.00.
On the same counts, the results for `COc1cccc(C=C2c3ccccc3CNc3ccccc32)c1` [Example 650] are over 6.30 and over 6.30.
On to `CN1C(=O)c2ccccc2C(=Cc2cccc(N)c2)c2ccccc21` [Example 651], for which the pKi at human MR was over 6.30; at glucocorticoid receptor, over 6.00.
In the same order, the values of `CN1C(=O)c2ccccc2C(=Cc2cccc(NS(C)(=O)=O)c2)c2ccccc21` [Example 652] are over 6.30 and over 5.00.
On to `CN1Cc2ccccc2C(=Cc2cccc(NS(C)(=O)=O)c2)c2ccccc21` [Example 653], for which the figures for the pKi at human MR and on glucocorticoid receptor were over 6.30 and over 6.00, respectively.
For the compound `COc1cccc(C=C2c3cc(Cl)ccc3NC(=O)c3ccccc32)c1` [Example 654], the pKi at human MR and at glucocorticoid receptor was over 6.30 throughout.
As to `COc1cccc(C=C2c3ccccc3C(=O)N(C)c3ccc(Cl)cc32)c1` [Example 656], the negative-log Ki (pKi) on human MR and at glucocorticoid receptor was over 6.30 throughout.
For the compound `COC(=O)c1ccc2c(c1)/C(=C\c1cccc(NS(C)(=O)=O)c1)c1ccccc1CO2` [Example 659], the pKi on human MR was over 6.00; at glucocorticoid receptor it was over 5.00.
As to `COc1ccc2c(c1)OCc1ccccc1/C2=C/c1cccc(NS(C)(=O)=O)c1` [Example 660], the pKi on human MR and at glucocorticoid receptor was over 6.30 in each case.
As for `COc1ccc2c(c1)OCc1ccccc1/C2=C\c1cccc(NS(C)(=O)=O)c1` [Example 661], the negative-log Ki (pKi) on human MR and at glucocorticoid receptor was over 6.30 in each case.
With `CS(=O)(=O)Nc1cccc(/C=C2/c3ccccc3COc3c(Cl)cccc32)c1` [Example 662], the pKi at human MR and on glucocorticoid receptor was over 6.30 in each case.
Take `CS(=O)(=O)Nc1cccc(/C=C2\c3ccccc3COc3c(Cl)cccc32)c1` [Example 663]: the pKi at human MR and at glucocorticoid receptor was over 6.30 in each case.
For `CS(=O)(=O)Nc1cccc(/C=C2/c3ccccc3COc3cc(Cl)ccc32)c1` [Example 664], the pKi on human MR and on glucocorticoid receptor was over 6.30 each time.
Regarding `CS(=O)(=O)Nc1cccc(/C=C2\c3ccccc3COc3cc(Cl)ccc32)c1` [Example 665], the pKi at human MR and at glucocorticoid receptor was over 6.30 throughout.
Regarding `CN(c1cccc(/C=C2/c3ccccc3COc3c(Cl)cccc32)c1)S(C)(=O)=O` [Example 666], the pKi at human MR and at glucocorticoid receptor was over 6.30 each time.
Turning to `CN(c1cccc(/C=C2\c3ccccc3COc3cc(Cl)ccc32)c1)S(C)(=O)=O` [Example 667], the pKi on human MR is over 6.00; at glucocorticoid receptor, over 5.00.
On the same counts, the results for `COc1cc2c(cc1Br)/C(=C/c1cccc(NS(C)(=O)=O)c1)c1ccccc1CO2` [Example 668] are over 6.30 and over 6.00.
Regarding `COc1cccc2c1OCc1ccccc1/C2=C/c1cccc(NS(C)(=O)=O)c1` [Example 669], the negative logarithm of the Ki (pKi) on human MR and on glucocorticoid receptor was over 6.30 each time.
Consider `CS(=O)(=O)Nc1cccc(/C=C2\c3ccccc3COc3c(F)cccc32)c1` [Example 670], for which the pKi on human MR and at glucocorticoid receptor was over 6.30 throughout.
For `CS(=O)(=O)Nc1cccc(/C=C2/c3ccccc3COc3ccc(F)cc32)c1` [Example 671], the negative-log Ki (pKi) on human MR and at glucocorticoid receptor was over 6.30 in each case.
Consider `CS(=O)(=O)Nc1cccc(/C=C2\c3ccccc3COc3ccc(F)cc32)c1` [Example 672], for which the pKi at human MR and at glucocorticoid receptor was over 6.30 in each case.
As for `Cc1cccc2c1OCc1ccccc1/C2=C/c1cccc(NS(C)(=O)=O)c1` [Example 673], the pKi at human MR and on glucocorticoid receptor was over 6.30 each time.
As for `Cc1cccc2c1OCc1ccccc1/C2=C\c1cccc(NS(C)(=O)=O)c1` [Example 674], the pKi at human MR and at glucocorticoid receptor was over 6.30 throughout.
For `Cc1ccc2c(c1)OCc1ccccc1/C2=C/c1cccc(NS(C)(=O)=O)c1` [Example 675], the pKi on human MR and on glucocorticoid receptor was over 6.30 each time.
